Results: the NIST ThermoML archive (doi:10.1016/j.jct.2016.03.028)
Numbers after ± are expanded uncertainties.

Assays:
[1] = refractive index (Na D-line) (dimensionless); conditions: 100 kPa, Liquid, Standard Abbe refractometry
[2] = Liquid; for speed of sound: 100 kPa, Frequency=3 MHz, Sing-around technique in a fixed-path interferometer; for mass density: 101.3 kPa, Vibrating tube method
[3] = xn = mol fraction of the nth substance listed; conditions: Liquid, x1 = 1; for speed of sound: 100 kPa, Frequency=3 MHz, Sing-around technique in a fixed-path interferometer; for mass density: 101.3 kPa, Vibrating tube method
[4] = refractive index (Na D-line) (dimensionless); xn = mol fraction of the nth substance listed; conditions: 100 kPa, Liquid, Standard Abbe refractometry, x1 = 1

CCOS(=O)(=O)[O-].CCn1cc[n+](C)c1 [1-ethyl-3-methylimidazolium ethyl sulfate]
refractive index ([1]; 298.15 K): 1.47907 ± 0.002 | refractive index ([1]; 308.15 K): 1.47645 ± 0.002 | refractive index ([1]; 318.15 K): 1.47374 ± 0.002 | refractive index ([1]; 328.15 K): 1.47112 ± 0.002 | speed of sound ([2]; 298.15 K): 1680.8 ± 1.6 m/s | mass density ([2]; 298.15 K): 1236.38 ± 2 kg/m3 | speed of sound ([2]; 308.15 K): 1656.4 ± 1.6 m/s | mass density ([2]; 308.15 K): 1229.49 ± 2 kg/m3 | speed of sound ([2]; 318.15 K): 1632.4 ± 1.6 m/s | mass density ([2]; 318.15 K): 1222.78 ± 2 kg/m3 | speed of sound ([2]; 328.15 K): 1608.9 ± 1.6 m/s | mass density ([2]; 328.15 K): 1216.16 ± 2 kg/m3

CCOS(=O)(=O)[O-].CCn1cc[n+](C)c1 [1-ethyl-3-methylimidazolium ethyl sulfate] + CCCOCCO
speed of sound ([3]; 298.15 K): 1680.8 ± 1.6 m/s | mass density ([3]; 298.15 K): 1236.38 ± 2 kg/m3 | speed of sound ([3]; 308.15 K): 1656.4 ± 1.6 m/s | mass density ([3]; 308.15 K): 1229.49 ± 2 kg/m3 | speed of sound ([3]; 318.15 K): 1632.4 ± 1.6 m/s | mass density ([3]; 318.15 K): 1222.78 ± 2 kg/m3 | speed of sound ([3]; 328.15 K): 1608.9 ± 1.6 m/s | mass density ([3]; 328.15 K): 1216.16 ± 2 kg/m3 | refractive index ([4]; 298.15 K): 1.47907 ± 0.002 | refractive index ([4]; 308.15 K): 1.47645 ± 0.002 | refractive index ([4]; 318.15 K): 1.47374 ± 0.002 | refractive index ([4]; 328.15 K): 1.47112 ± 0.002

CCCOCCO [2-propoxyethanol]
refractive index ([1]; 298.15 K): 1.41255 ± 0.002 | refractive index ([1]; 308.15 K): 1.40814 ± 0.002 | refractive index ([1]; 318.15 K): 1.40355 ± 0.002 | refractive index ([1]; 328.15 K): 1.39908 ± 0.002 | speed of sound ([2]; 298.15 K): 1299.9 ± 1.5 m/s | mass density ([2]; 298.15 K): 908.31 ± 2 kg/m3 | speed of sound ([2]; 308.15 K): 1265 ± 1.5 m/s | mass density ([2]; 308.15 K): 899.5 ± 2 kg/m3 | speed of sound ([2]; 318.15 K): 1230.1 ± 1.5 m/s | mass density ([2]; 318.15 K): 890.56 ± 2 kg/m3 | speed of sound ([2]; 328.15 K): 1195.8 ± 1.5 m/s | mass density ([2]; 328.15 K): 881.49 ± 2 kg/m3
